The format of the data set is physicochemical. Here is the method:
FIG. 1 is a graph showing the measurement results of the solubility of adamantane (hereinafter, occasionally referred to simply as “ADM”) in TCD (mol %=ADM mol/(exo-TCD+endo-TCD+ADM)mol×100).
Specifically, at 80° C., with respect to the purity of 80% of mixed TCD containing exo-TCD of 99% and endo-TCD of 1% (hereinafter, referred to simply as “exo-TCD (99)”), the total ADM solubility is 20 mol %. […] It is preferable to control the yield (generation amount) of adamantane to be equal to or less than such a level of ADM solubility.

Results on one compound are retold here after US8188326B2, “Process for producing adamantane” (Mitsubishi Gas Chemical Company, Inc., priority 2008, dated 2012).

Consider `C1C2CC3CC1CC(C2)C3` [adamantane, tricyclo[3.3.1.1^3,7]decane], for which the “total ADM solubility of adamantane with respect to TCD” value came out at 12.3 mol %.
